Laboratory results reported in patent US20240262822A1, “WDR5 INHIBITORS AND MODULATORS” (Vanderbilt University, priority 2021, published 2024).
Read-outs that look alike come from different tables or passages of the source.

Key:
[1] = biological target: T1, WDR5 (Homo sapiens, UniProt P61964); assay: Time Resolved-Fluorescence Energy Transfer (TR-FRET) competition assay, displacement of 10mer-Thr-FAM probe from His-tagged WDR5; format: binding; conditions: WDR5-His tag 2 nM, 10mer-Thr-FAM 150 nM, 60 minutes at room temperature
T1 construct: WDR5-His Tag (A23, residues 24-334) is expressed and purified in our lab; made in house
Excerpt: Excess 10mer-Thr-FAM probe was utilized with His-tagged WDR5 in conjunction with a commercial anti-His antibody containing a Terbium label. The LanthaScreen™ Elite Tb-anti-HIS Antibody from ThermoFisher Scientific was used for this purpose. This Tb-anti-HIS has an excitation/emission of 340 nm and 490 nm, respectively. The 10mer-Thr-FAM probe when bound to WDR5 will undergo a FRET interaction with the Tb-anti-HIS and emit at 520 nm. […] WDR5-His Tag (A23, residues 24-334) is expressed and purified in our lab in sufficient quantities for screening. 10mer-Thr-FAM peptide is used at 150 nM. WDR5-His tag protein is used at 2 nM. A source plate is prepared using an Echo Liquid Handler, which distributes the compounds to the assay plate (white, flat-bottom; OptiPlate) in a 10-point, 5-fold dilution schemes with a top concentration of 5 μM, in a final volume of 20 μL. A final target (WDR5)/Tb-Ab concentration of 2 nM/1 nM is dispensed from appropriate stock solutions, respectively. The final DMSO concentration in each well of the assay plate is 1% or lower. The plate is covered, shielded from light, and incubated for 60 minutes at room temperature with rocking. 10mer-Thr-FAM and Anti-His terbium antibody fluorescence is then measured on a Biotek Cytation 3 at excitation wavelength of 340 nm, and emission wavelengths of 495 nm and 520 nm. Working buffer conditions contain 1× Phosphate Buffered Saline, 300 mM NaCl, 0.5 mM TCEP, 0.1% CHAPS, at pH 7.2. TR-FRET signal is plotted and IC50 and Ki values are calculated according to the formula of Wang Z. FEBS Lett (1996) 3, 245.
where […] is the concentration of the free inhibitor at 50% inhibition, [L]50 is the concentration of the free labeled ligand at 50% inhibition, [P]0 is the concentration of the free protein at 0% inhibition, Kd represents the dissociation constant of the FITC-MLL or 10mer-Thr-FAM probe for WDR5. Total fluorescence is also measured, to rule out compounds that are inherently fluorescent or able to act as quenchers in the assay. TR-FRET binding assay

[2] = tested on: MV4:11 human cancer cell lines; assay: Cellular viability / anti-proliferative activity, CellTiter-Glo, 5 day protocol; format: cell-based; conditions: 5 day incubation
Description: Anti-proliferative activity using MLL-harboring cell lines. MV-4-11 and K562 cells are grown in IMDM media supplemented with 10% FBS and 1% penicillin/streptomycin, Molm-13 cells are cultured in RPMI-1640 media supplemented with 10% FBS and 1% penicillin/streptomycin. Viability assays are performed by dispensing 200 cells at 7200 cells/mL into each well of an opaque 384-well plate and adding compounds at the indicated concentrations in a final volume of 32 μL and a final concentration of DMSO of 0.3% for all samples. A certain range of compound concentrations is made through a series of 2-fold dilutions starting 30 μM at the highest, total 22 dilutions. After a set incubation period, 5 day protocol, the viability of cells in each well is assessed using the CellTiter-Glo assay (Promega), read on a 96 Microplane Luminometer (Cytation 3, BioTek). Serial dilutions of each cell type are performed in all assays to generate standard curves and the final densities of cells are determined within the dynamic range of the instrument. GI50 values are calculated based on XLfit software (IDBS, Guildford, UK) with Sigmoidal Dose-Response Model. Each compound is tested in minimum of two replicates. Data are expressed as mean.

[3] = read-out: Ki for additional WDR5 inhibitor compounds for Inhibition of WDR5 by TR-FRET assay
[4] = Homo sapiens, MV4-11, 120 h, MV4;11 cells, read-out: GI50 for additional WDR5 inhibitor compounds on cellular proliferation of MV4;11 human cancer cell lines
[5] = Homo sapiens, 120 h, MV4;11 cells, read-out: GI50 for additional WDR5 inhibitor compounds on cellular proliferation of MV4;11 human cancer cell lines
[6] = read-out: Ki for Exemplified Compounds for Inhibition of WDR5 by TR-FRET assay
[7] = Homo sapiens, MV4-11, 120 h, MV4:11 cells, read-out: GI50 for representative compounds on cellular proliferation of MV4:11 human cancer cell lines

Row | Structure (SMILES) | Ki [1, 3] [nM] | GI50 [2, 4] [nM] | Ki [1, 6] [nM] | GI50 [2, 7] [nM] | other results
1 | COc1cc(N(C)C)c2nccc(N3CCc4c(cc(Cn5ccnc5)cc4-c4cn(C)nc4C(F)(F)F)C3=O)c2c1 [Compound B-35] | < 0.02 | 76 | – | – | –
2 | CCc1cc(C2CCOCC2)c2nccc(N3CCc4c(cc(Cn5ccnc5)cc4-c4cn(C)nc4C(F)(F)F)C3=O)c2c1 [Compound B-36] | < 0.02 | 23 | – | – | –
3 | CNC(=O)c1cc(OC)cc2c(N3CCc4c(cc(Cn5ccnc5)cc4-c4cn(C)nc4C(F)(F)F)C3=O)ccnc12 [Compound B-42] | – | < 20 | – | – | –
4 | CCc1cc(N2CCN(C3COC3)C(=O)C2)c2nc(C)cc(N3CCc4c(cc(Cn5ccnc5)cc4-c4cn(C)nc4C(F)(F)F)C3=O)c2c1 [Compound B-132] | 0.03 | < 20 | – | – | –
5 | CCc1cc(C2CCOCC2)c2nc(C)cc(N3CCc4c(cc(Cn5ccnc5)cc4-c4cn(C)nc4C(F)(F)F)C3=O)c2c1 [Compound B-165] | 0.042 | 129 | – | – | –
6 | CCc1cc(C(=O)NCCN(C)C)c2nccc(N3CCc4c(cc(Cn5ccnc5)cc4-c4cn(C)nc4C(F)(F)F)C3=O)c2c1 [Compound B-166] | 0.029 | – | – | – | GI50 [2, 5]: < 20 nM
7 | COc1cc(N2C[C@H]3CN(C)C[C@H]3C2)c2nc(C)cc(N3CCc4c(cc(Cn5ccnc5)cc4-c4cn(C)nc4C(F)(F)F)C3=O)c2c1 [Compound B-197] | 0.02 | < 20 | – | – | –
8 | COc1cc(C(=O)Nc2cn[nH]c2)c2nc(C)cc(N3CCc4c(cc(Cn5ccnc5)cc4-c4cn(C)nc4C(F)(F)F)C3=O)c2c1 [Compound B-201] | 0.023 | 23 | – | – | –
9 | COc1cc(C(=O)NC2CN(C(=O)C3CCOCC3)C2)c2nccc(N3CCc4c(cc(Cn5ccnc5)cc4-c4cn(C)nc4C(F)(F)F)C3=O)c2c1 [Compound B-229] | < 0.02 | 26 | – | – | –
10 | CCc1cc(N)c2nccc(N3CCc4c(cc(Cn5ccnc5)cc4-c4cn(C)nc4C(F)(F)F)C3=O)c2c1 [Compound B-230] | – | – | – | – | GI50 [2, 5]: 54 nM
11 | CCc1cc(NC(C)=O)c2nccc(N3CCc4c(cc(Cn5ccnc5)cc4-c4cn(C)nc4C(F)(F)F)C3=O)c2c1 [Compound B-231] | – | < 20 | – | – | –
12 | CCc1cc(NC(=O)CC2CN(C(=O)C3CCOCC3)C2)c2nccc(N3CCc4c(cc(Cn5ccnc5)cc4-c4cn(C)nc4C(F)(F)F)C3=O)c2c1 [Compound B-233] | < 0.02 | 26 | – | – | –
13 | CCc1cc(C(=O)NC2CN(C(C)=O)C2)c2nccc(N3CCc4c(cc(Cn5ccnc5)cc4-c4cn(C)nc4C(F)(F)F)C3=O)c2c1 [Compound B-241] | < 0.02 | – | – | – | –
14 | CCc1cc(C(=O)NC2CN(C(=O)c3ccncc3)C2)c2nccc(N3CCc4c(cc(Cn5ccnc5)cc4-c4cn(C)nc4C(F)(F)F)C3=O)c2c1 [Compound B-242] | < 0.02 | – | – | – | GI50 ([2]; MV4;11 cells, read-out: GI50 for additional WDR5 inhibitor compounds on cellular proliferation of MV4;11 human cancer cell lines): 29 nM
15 | COc1cnc2cc(C)cc(N3CCc4c(cc(Cn5ccnc5C)cc4-c4cn(C)nc4C(F)(F)F)C3=O)c2c1 [Example 2, 2-(3-Methoxy-7-methylquinolin-5-yl)-7-((2-methyl-1H-imidazol-1-yl)methyl)-5-(1-methyl-3-(trifluoromethyl)-1H-pyrazol-4-yl)-3,4-dihydroisoquinolin-1(2H)-one] | – | – | < 0.02 | < 20 | –
16 | CCc1cc(C(=O)NC)c2nccc(N3CCc4c(cc(Cn5ccnc5C)cc4-c4cn(C)nc4C(F)(F)F)C3=O)c2c1 [Example 5, 6-Ethyl-N-methyl-4-(7-((2-methyl-1H-imidazol-1-yl)methyl)-5-(1-methyl-3-(trifluoromethyl)-1H-pyrazol-4-yl)-1-oxo-3,4-dihydroisoquinolin-2(1H)-yl)quinoline-8-carboxamide] | – | – | < 0.02 | < 20 | –
17 | CCc1cc(C(N)=O)c2nccc(N3CCc4c(cc(Cn5ccnc5C)cc4-c4cn(C)nc4C(F)(F)F)C3=O)c2c1 [Example 6, 6-Ethyl-4-(7-((2-methyl-11H-imidazol-1-yl)methyl)-5-(1-methyl-3-(trifluoromethyl)-1H-pyrazol-4-yl)-1-oxo-3,4-dihydroisoquinolin-2(1H)-yl)quinoline-8-carboxamide] | – | – | < 0.02 | < 20 | –
18 | CCc1cc2c(N3CCc4c(cc(Cn5ccnc5)cc4-c4cn(C)nc4C(F)(F)F)C3=O)ccnc2c(=O)[nH]1 [Example 7, 4-(7-((1H-Imidazol-1-yl)methyl)-5-(1-methyl-3-(trifluoromethyl)-1H-pyrazol-4-yl)-1-oxo-3,4-dihydroisoquinolin-2(1H)-yl)-6-ethyl-1,7-naphthyridin-8(7H)-one and 7-((1H-imidazol-1-yl)methyl)-2-(6-ethyl-8-hydroxy-1,7-naphthyridin-4-yl)-5-(1-methyl-3-(trifluoromethyl)-1H-pyrazol-4-yl)-3,4-dihydroisoquinolin-1(2H)-one mixture] | – | – | < 0.02 | 1990 | –
19 | CCc1cc2c(N3CCc4c(cc(Cn5ccnc5)cc4-c4cn(C)nc4C(F)(F)F)C3=O)ccnc2c(NC)n1 [Example 9, 7-((1H-Imidazol-1-yl)methyl)-2-(6-ethyl-8-(methylamino)-1,7-naphthyridin-4-yl)-5-(1-methyl-3-(trifluoromethyl)-1H-pyrazol-4-yl)-3,4-dihydroisoquinolin-1(2H)-one] | – | – | < 0.02 | 102 | –
20 | CCc1cc2c(N3CCc4c(cc(Cn5ccnc5C)cc4-c4cn(C)nc4C(F)(F)F)C3=O)ccnc2c(OC)n1 [Example 10, 2-(6-Ethyl-8-methoxy-1,7-naphthyridin-4-yl)-7-((2-methyl-1H-imidazol-1-yl)methyl)-5-(1-methyl-3-(trifluoromethyl)-1H-pyrazol-4-yl)-3,4-dihydroisoquinolin-1(2H)-one] | – | – | < 0.02 | < 20 | –
21 | CCc1cnc2c(c1)[C@@H](N1CCc3c(cc(Cn4ccnc4)cc3-c3cn(C)nc3C(F)(F)F)C1=O)CCO2 [Example 11, (S)-7-((1H-Imidazol-1-yl)methyl)-2-(6-ethyl-3,4-dihydro-2H-pyrano[2,3-b]pyridin-4-yl)-5-(1-methyl-3-(trifluoromethyl)-1H-pyrazol-4-yl)-3,4-dihydroisoquinolin-1(2H)-one] | – | – | < 0.02 | < 20 | –
22 | COc1cc2c(N3CCc4c(cc(Cn5ccnc5)cc4-c4cn(C)nc4C(F)(F)F)C3=O)ccnc2c(OC)n1 [Example 12, 7-((1H-Imidazol-1-yl)methyl)-2-(6,8-dimethoxy-1,7-naphthyridin-4-yl)-5-(1-methyl-3-(trifluoromethyl)-1H-pyrazol-4-yl)-3,4-dihydroisoquinolin-1(2H)-one] | – | – | < 0.02 | 42 | –
23 | CCc1cc(OC)c2nncc(N3CCc4c(cc(Cn5ccnc5)cc4-c4cn(C)nc4C(F)(F)F)C3=O)c2c1 [Example 13, 7-((1H-Imidazol-1-yl)methyl)-2-(6-ethyl-8-methoxycinnolin-4-yl)-5-(1-methyl-3-(trifluoromethyl)-1H-pyrazol-4-yl)-3,4-dihydroisoquinolin-1(2H)-one] | – | – | < 0.02 | < 20 | –
24 | CCc1cc(OC)c2nncc(N3CCc4c(cc(Cn5ccnc5C)cc4-c4cn(C)nc4C(F)(F)F)C3=O)c2c1 [Example 14, 2-(6-Ethyl-8-methoxycinnolin-4-yl)-7-((2-methyl-1H-imidazol-1-yl)methyl)-5-(1-methyl-3-(trifluoromethyl)-1H-pyrazol-4-yl)-3,4-dihydroisoquinolin-1(2H)-one] | – | – | < 0.02 | < 20 | –
